Drawing on the NIST ThermoML archive (doi:10.1016/j.fluid.2012.11.003), this text covers activity coefficient and excess molar enthalpy for 20 compounds.

Data set [1] is described as follows: activity coefficient (dimensionless); of the first substance listed, at infinite dilution; xn = mol fraction of the nth substance listed. The note with it: 101 kPa, Liquid, dilutor technique, x1 = 0.
Data set [2] can be described thus: excess molar enthalpy (molar enthalpy of mixing); xn = mol fraction of the nth substance listed. The settings on record: 353.15 K, 101 kPa, Liquid, Flow calorimetry.

Numbers after ± are expanded uncertainties.

Regarding `CCO` [ethanol] + CCOS(=O)(=O)[O-].CCn1cc[n+](C)c1, the activity coefficient in data set [1] (303.15 K) was 0.866 ± 0.056; in data set [1] (313.15 K) it was 0.783 ± 0.053; in data set [1] (323.15 K) it was 0.703 ± 0.05; in data set [1] (333.15 K), 0.6 ± 0.046; in data set [1] (343.15 K), 0.554 ± 0.045; in data set [1] (353.15 K), 0.534 ± 0.044.
As for `CCC(C)O` (stereo unspecified) [butan-2-ol] + CCn1cc[n+](C)c1.O=S(=O)([O-])O, the activity coefficient in data set [1] (323.15 K) is 1.22 ± 0.079; in data set [1] (333.15 K), 0.76 ± 0.052; in data set [1] (343.15 K), 0.566 ± 0.045; in data set [1] (353.15 K), 0.452 ± 0.042.
For `CO` [methanol] + CCn1cc[n+](C)c1.COS(=O)(=O)[O-] the same measures were 0.257 ± 0.039, 0.203 ± 0.039, 0.178 ± 0.039 and 0.105 ± 0.039.
As for `CCCO` [propan-1-ol] + CCn1cc[n+](C)c1.O=S(=O)([O-])O, the activity coefficient in data set [1] (323.15 K) is 0.431 ± 0.041; in data set [1] (333.15 K), 0.338 ± 0.039; in data set [1] (343.15 K) it was 0.233 ± 0.039; in data set [1] (353.15 K), 0.196 ± 0.039.
As to `CO` [methanol] + CCOS(=O)(=O)[O-].CCn1cc[n+](C)c1, the activity coefficient in data set [1] (303.15 K) is 0.537 ± 0.044; in data set [1] (313.15 K) it was 0.419 ± 0.041; in data set [1] (323.15 K) it was 0.406 ± 0.041; in data set [1] (333.15 K), 0.41 ± 0.041; in data set [1] (343.15 K), 0.389 ± 0.04; in data set [1] (353.15 K) it was 0.339 ± 0.039.
For the compound `CC(C)O` [propan-2-ol] + CCn1cc[n+](C)c1.O=S(=O)([O-])O, the activity coefficient came to 0.577 ± 0.046 in data set [1] (323.15 K), 0.356 ± 0.04 in data set [1] (333.15 K), 0.278 ± 0.039 in data set [1] (343.15 K) and 0.223 ± 0.039 in data set [1] (353.15 K).
As to `CO` [methanol] + CCn1cc[n+](C)c1.O=S(=O)([O-])O, the activity coefficient in data set [1] (323.15 K) came to 0.087 ± 0.039; in data set [1] (333.15 K), 0.078; in data set [1] (343.15 K) it was 0.058; in data set [1] (353.15 K) it was 0.041.
In the case of `CCO` [ethanol] + CCn1cc[n+](C)c1.O=S(=O)([O-])O, the activity coefficient stood at 0.426 ± 0.041 in data set [1] (313.15 K); 0.269 ± 0.039 in data set [1] (323.15 K); 0.177 ± 0.039 in data set [1] (333.15 K); 0.13 ± 0.039 in data set [1] (343.15 K); 0.116 ± 0.039 in data set [1] (353.15 K).
Take `CCO` [ethanol] + CCn1cc[n+](C)c1.COS(=O)(=O)[O-]: the activity coefficient in data set [1] (323.15 K) came to 0.449 ± 0.042; in data set [1] (333.15 K) it was 0.398 ± 0.041; in data set [1] (343.15 K), 0.349 ± 0.039; in data set [1] (353.15 K), 0.303 ± 0.039.
On to `CCCO` [propan-1-ol] + CCOS(=O)(=O)[O-].CCn1cc[n+](C)c1, for which the activity coefficient worked out at 1.31 ± 0.087 in data set [1] (303.15 K); 1.2 ± 0.078 in data set [1] (313.15 K); 1.03 ± 0.064 in data set [1] (323.15 K); 0.914 ± 0.058 in data set [1] (333.15 K); 0.855 ± 0.055 in data set [1] (343.15 K); 0.803 ± 0.054 in data set [1] (353.15 K).
As for `CCn1cc[n+](C)c1.COS(=O)(=O)[O-]` [1-ethyl-3-methylimidazolium methylsulfate] + CCO, the excess molar enthalpy in data set [2] (x2 = 0.0977) worked out at 0.033 ± 0.000789 kcal/mol; in data set [2] (x2 = 0.1834) it was 0.0608 ± 0.00136 kcal/mol; in data set [2] (x2 = 0.249), 0.0835 ± 0.00184 kcal/mol; in data set [2] (x2 = 0.3794) it was 0.134 ± 0.00287 kcal/mol; in data set [2] (x2 = 0.5247), 0.185 ± 0.00406 kcal/mol; in data set [2] (x2 = 0.6059) it was 0.206 ± 0.00454 kcal/mol. The excess molar enthalpy stood at 0.218 ± 0.00478 kcal/mol in data set [2] (x2 = 0.701); 0.209 ± 0.00454 kcal/mol in data set [2] (x2 = 0.7779); 0.183 ± 0.00406 kcal/mol in data set [2] (x2 = 0.8414); 0.14 ± 0.00311 kcal/mol in data set [2] (x2 = 0.8947); 0.091 ± 0.00198 kcal/mol in data set [2] (x2 = 0.9358); 0.0381 ± 0.000884 kcal/mol in data set [2] (x2 = 0.9754).
Regarding `CCCCO` [butan-1-ol] + CCn1cc[n+](C)c1.O=S(=O)([O-])O, the activity coefficient amounted to 0.758 ± 0.052 in data set [1] (323.15 K), 0.62 ± 0.047 in data set [1] (333.15 K) and 0.43 ± 0.041 in data set [1] (343.15 K).
Regarding `CCC(C)O` (stereo unspecified) [butan-2-ol] + CCn1cc[n+](C)c1.COS(=O)(=O)[O-], the activity coefficient in data set [1] (323.15 K) is 4.02 ± 0.36; in data set [1] (333.15 K) it was 3.11 ± 0.28; in data set [1] (343.15 K), 2.58 ± 0.23; in data set [1] (353.15 K), 2.24 ± 0.2.
With `CCCCO` [butan-1-ol] + CCOS(=O)(=O)[O-].CCn1cc[n+](C)c1, the activity coefficient in data set [1] (313.15 K) was 1.93 ± 0.14; in data set [1] (323.15 K), 1.65 ± 0.12; in data set [1] (333.15 K), 1.39 ± 0.093; in data set [1] (343.15 K), 1.37 ± 0.092; in data set [1] (353.15 K) it was 1.19 ± 0.077.
As for `CCC(C)O` (stereo unspecified) [butan-2-ol] + CCOS(=O)(=O)[O-].CCn1cc[n+](C)c1, the activity coefficient in data set [1] (303.15 K) is 2.06 ± 0.18; in data set [1] (313.15 K), 1.83 ± 0.13; in data set [1] (323.15 K) it was 1.69 ± 0.12; in data set [1] (333.15 K), 1.56 ± 0.11; in data set [1] (343.15 K), 1.62 ± 0.11; in data set [1] (353.15 K), 1.39 ± 0.094.
For the compound `CCOS(=O)(=O)[O-].CCn1cc[n+](C)c1` [1-ethyl-3-methylimidazolium ethyl sulfate] + CCO, the excess molar enthalpy in data set [2] (x2 = 0.0627) was 0.0259 ± 0.000645 kcal/mol; in data set [2] (x2 = 0.1063), 0.0446 ± 0.00103 kcal/mol; in data set [2] (x2 = 0.1471), 0.0636 ± 0.00141 kcal/mol; in data set [2] (x2 = 0.1979), 0.0845 ± 0.00186 kcal/mol; in data set [2] (x2 = 0.267), 0.109 ± 0.00239 kcal/mol; in data set [2] (x2 = 0.3288), 0.137 ± 0.00287 kcal/mol. Further, the excess molar enthalpy in data set [2] (x2 = 0.4017) is 0.167 ± 0.00359 kcal/mol; in data set [2] (x2 = 0.4504), 0.181 ± 0.00382 kcal/mol; in data set [2] (x2 = 0.548), 0.206 ± 0.00454 kcal/mol; in data set [2] (x2 = 0.6281) it was 0.219 ± 0.00478 kcal/mol; in data set [2] (x2 = 0.7203), 0.219 ± 0.00478 kcal/mol; in data set [2] (x2 = 0.7937), 0.205 ± 0.0043 kcal/mol. In addition, the excess molar enthalpy in data set [2] (x2 = 0.8535) was found to be 0.174 ± 0.00382 kcal/mol; in data set [2] (x2 = 0.9032) it was 0.13 ± 0.00287 kcal/mol; in data set [2] (x2 = 0.9412), 0.0823 ± 0.00182 kcal/mol; in data set [2] (x2 = 0.9776), 0.0327 ± 0.000765 kcal/mol.
For the compound `CCCO` [propan-1-ol] + CCn1cc[n+](C)c1.COS(=O)(=O)[O-], the activity coefficient is 1.05 ± 0.066 in data set [1] (323.15 K), 0.975 ± 0.06 in data set [1] (333.15 K), 0.839 ± 0.055 in data set [1] (343.15 K) and 0.705 ± 0.05 in data set [1] (353.15 K).
For `CCCCO` [butan-1-ol] + CCn1cc[n+](C)c1.COS(=O)(=O)[O-] the same measures were 2.62 ± 0.23, 2.4 ± 0.21, 2.05 ± 0.18 and 1.74 ± 0.12.
The like results for `CC(C)O` [propan-2-ol] + CCn1cc[n+](C)c1.COS(=O)(=O)[O-] were, in that order, 1.33 ± 0.089, 1.17 ± 0.075, 1.01 ± 0.062 and 0.84 ± 0.055.
Regarding `CC(C)O` [propan-2-ol] + CCOS(=O)(=O)[O-].CCn1cc[n+](C)c1, the activity coefficient in data set [1] (303.15 K) is 1.48 ± 0.1; in data set [1] (313.15 K), 1.31 ± 0.087; in data set [1] (323.15 K) it was 1.25 ± 0.082; in data set [1] (333.15 K), 1.04 ± 0.065; in data set [1] (343.15 K), 1.01 ± 0.062; in data set [1] (353.15 K), 0.966 ± 0.06.
